ChEMBL document CHEMBL5247652, “Discovery of Novel Substrate-Competitive Lysine Methyltransferase G9a Inhibitors as Anticancer Agents” (J Med Chem, 2023)
≈ marks a conversion by molar mass, not a printed value.

Legend:
[1] = target: T1, Histone-lysine N-methyltransferase EHMT2 (Homo sapiens, UniProt Q96KQ7); assay: Inhibition of N-terminal GST-tagged human recombinant G9a (785 to 1210 residues) expressed in baculovirus infected Sf9 cells incubated for 1 hr by AlphaLISA analysis
T1 sequence (Q96KQ7 whole entry): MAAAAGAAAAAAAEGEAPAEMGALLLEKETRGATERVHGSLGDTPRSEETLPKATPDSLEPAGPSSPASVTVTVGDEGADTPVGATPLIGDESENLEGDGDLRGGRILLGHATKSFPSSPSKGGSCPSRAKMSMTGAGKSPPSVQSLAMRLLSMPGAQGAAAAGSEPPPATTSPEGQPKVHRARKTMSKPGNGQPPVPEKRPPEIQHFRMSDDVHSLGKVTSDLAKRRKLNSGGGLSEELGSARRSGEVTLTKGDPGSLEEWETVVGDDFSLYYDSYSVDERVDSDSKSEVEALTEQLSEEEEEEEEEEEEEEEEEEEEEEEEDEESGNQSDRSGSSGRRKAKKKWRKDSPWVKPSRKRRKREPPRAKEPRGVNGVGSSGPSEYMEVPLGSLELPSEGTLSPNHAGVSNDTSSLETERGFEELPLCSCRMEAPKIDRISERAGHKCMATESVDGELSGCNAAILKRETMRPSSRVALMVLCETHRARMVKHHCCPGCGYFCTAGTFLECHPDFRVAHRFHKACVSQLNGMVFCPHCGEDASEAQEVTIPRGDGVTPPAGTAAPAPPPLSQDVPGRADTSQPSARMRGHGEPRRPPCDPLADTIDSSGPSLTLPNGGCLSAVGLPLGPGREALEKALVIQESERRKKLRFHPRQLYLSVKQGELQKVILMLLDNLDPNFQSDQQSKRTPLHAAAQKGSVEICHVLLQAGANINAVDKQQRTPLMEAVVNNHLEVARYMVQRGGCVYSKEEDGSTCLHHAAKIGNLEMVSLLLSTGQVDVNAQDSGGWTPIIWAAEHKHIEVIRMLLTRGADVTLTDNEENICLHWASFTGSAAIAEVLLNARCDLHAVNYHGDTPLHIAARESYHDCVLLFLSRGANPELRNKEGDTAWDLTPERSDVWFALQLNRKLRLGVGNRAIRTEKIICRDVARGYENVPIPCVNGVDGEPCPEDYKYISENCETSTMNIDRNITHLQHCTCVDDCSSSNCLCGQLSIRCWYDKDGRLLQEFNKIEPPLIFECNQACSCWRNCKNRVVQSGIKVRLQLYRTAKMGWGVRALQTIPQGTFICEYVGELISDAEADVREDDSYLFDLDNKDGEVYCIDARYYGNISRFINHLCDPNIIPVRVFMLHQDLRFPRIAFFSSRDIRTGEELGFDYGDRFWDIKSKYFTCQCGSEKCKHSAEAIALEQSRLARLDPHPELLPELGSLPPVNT

[2] = Aqueous solubility of compound at pH 7.4 measured for 1 hr by UV-plate reader analysis; type: physicochemical; conditions: buffer
[3] = Microsomal stability in mouse liver microsomes assessed as parent compound remaining after 30 mins in presence of NADPH by LC -MS/MS analysis; type: ADME, Microsome; conditions: read-out: Stability
[4] = Permeability of compound by PAMPA assay; type: ADME; conditions: read-out: permeability
[5] = Microsomal stability in human liver microsomes assessed as parent compound remaining after 30 mins in presence of NADPH by LC -MS/MS analysis; type: ADME, Microsome; conditions: read-out: Stability

SMILES | IC50 [1] [nM] | solubility at 1 h [2] [µM] | remaining at 0.5 h [3] [%] | Papp [4] [×10⁻⁶ cm/s] | remaining at 0.5 h [5] [%]
CCCC[C@H](NC(=O)c1[nH]c2c(c1C)C(=O)CC1(CCOCC1)C2)C(=O)Nc1ccccc1 | 2080 |  |  |  | 
CCCC[C@H](NC(=O)c1[nH]c2c(c1C(C)(C)C)C(=O)CC(C)(C)C2)C(=O)Nc1ccccc1 | > 50000 |  |  |  | 
CCCC[C@H](NC(=O)c1[nH]c2c(c1C)C(=O)CC(C)(C)C2)C(=O)Nc1ccccc1 | 355 |  |  |  | 
CCCC[C@H](NC(=O)c1[nH]c2c(c1C)C(=O)CC1(CCCCC1)C2)C(=O)Nc1ccccc1 | 1470 |  |  |  | 
Cc1c(C(=O)N[C@@H](CCCN(C)C)c2nc3ccccc3[nH]2)[nH]c2c1C(=O)CC(C)(C)C2 | > 50000 |  |  |  | 
CSCC[C@H](NC(=O)c1[nH]c2c(c1C)C(=O)CC(C)(C)C2)c1nc2ccccc2[nH]1 | 1430 |  |  |  | 
CCCC[C@H](NC(=O)c1[nH]c2c(c1CCC)C(=O)CC(C)(C)C2)C(=O)Nc1ccccc1 | 306 |  |  |  | 
CCCC[C@@H](NC(=O)c1[nH]c2c(c1C)C(=O)CC(C)(C)C2)c1nc2ccccc2[nH]1 | 4500 |  |  |  | 
Cc1c(C(=O)NC(CCC2CCC2)C(=O)Nc2ccccc2)[nH]c2c1C(=O)CC(C)(C)C2 (racemic) | 636 |  |  |  | 
CCCCC(NC(=O)c1[nH]c2c(c1C)C(=O)CC(C)(C)C2)C(=O)Nc1ccccc1Cl (racemic) | 1080 | 13.9 (≈ 6.17 µg/mL) | 0.1 | 7.16 | 30
CCCCC(NC(=O)c1[nH]c2c(c1C)C(=O)CC(C)(C)C2)C(=O)Nc1ccc(C(N)=O)cc1 (racemic) | 526 | 104 (≈ 47.1 µg/mL) | 92.2 | 0.62 | 90.9
CCCCC(NC(=O)c1[nH]c2c(c1C)C(=O)CC(C)(C)C2)C(=O)Nc1cccc(C#N)c1 (racemic) | 685 | 14.5 (≈ 6.3 µg/mL) | 6.4 | 7.78 | 79.1
Cc1c(C(=O)NC(CCc2ccccc2)C(=O)Nc2ccccc2)[nH]c2c1C(=O)CC(C)(C)C2 (racemic) | > 5000 |  |  |  | 
CCCCC(NC(=O)c1[nH]c2c(c1C)C(=O)CC(C)(C)C2)C(=O)Nc1ccccc1 (racemic) |  | 20.1 (≈ 8.23 µg/mL) | 19.9 | 12.5 | 77.8
CCCCC(NC(=O)c1[nH]c2c(c1C)C(=O)CC(C)(C)C2)C(=O)Nc1ccc(S(C)(=O)=O)cc1 (racemic) | 2960 | 43.6 (≈ 21.3 µg/mL) |  | 1.39 | 
Cc1c(C(=O)NC(CCCCN)C(=O)Nc2ccccc2)[nH]c2c1C(=O)CC(C)(C)C2 (racemic) | 27600 |  |  |  | 
CCCCC(NC(=O)c1[nH]c2c(c1C)C(=O)CC(C)(C)C2)C(=O)Nc1ccc(Cl)cc1 (racemic) | 1520 | 5.1 (≈ 2.26 µg/mL) |  |  | 
CCCCC(NC(=O)c1[nH]c2c(c1C)C(=O)CC(C)(C)C2)C(=O)Nc1cccc(OC)c1 (racemic) | 1210 | 3 (≈ 1.32 µg/mL) |  |  | 
CCCCC(NC(=O)c1[nH]c2c(c1C)C(=O)CC(C)(C)C2)C(=O)Nc1ccccc1OC (racemic) | 802 | 7.2 (≈ 3.16 µg/mL) | 1.7 | 49.4 | 11.8
CCCCC(NC(=O)c1[nH]c2c(c1C)C(=O)CC(C)(C)C2)C(=O)Nc1ccc(C#N)cc1 (racemic) | 446 | 12.9 (≈ 5.61 µg/mL) | 63.9 | 3.68 | 89.5
Cc1c(C(=O)NC(CCC2(C)CC2)C(=O)Nc2ccccc2)[nH]c2c1C(=O)CC(C)(C)C2 (racemic) | 1360 |  |  |  | 
CCCCC(NC(=O)c1[nH]c2c(c1C)C(=O)CC(C)(C)C2)C(=O)Nc1ccccn1 (racemic) | 4260 | 62.1 (≈ 25.5 µg/mL) | 25.1 | 11.2 | 68.8
CCCCCC(NC(=O)c1[nH]c2c(c1C)C(=O)CC(C)(C)C2)C(=O)Nc1ccccc1 (racemic) | > 50000 |  |  |  | 
Cc1c(C(=O)NC(CCC(C)C)C(=O)Nc2ccccc2)[nH]c2c1C(=O)CC(C)(C)C2 (racemic) | 291 |  |  |  | 
Cc1c(C(=O)NC(CC2CC2)C(=O)Nc2ccccc2)[nH]c2c1C(=O)CC(C)(C)C2 (racemic) | 1160 |  |  |  | 
CCCCC(NC(=O)c1[nH]c2c(c1C)C(=O)CC(C)(C)C2)C(=O)NC1CCCCC1 (racemic) | 925 | 15 (≈ 6.23 µg/mL) | 0 | 4.15 | 1.2
Cc1c(C(=O)NC(CCCN)C(=O)Nc2ccccc2)[nH]c2c1C(=O)CC(C)(C)C2 (racemic) | 12300 |  |  |  | 
CCCCC(NC(=O)c1oc2c(c1C)C(=O)CC(C)(C)C2)C(=O)Nc1ccccc1 (racemic) | > 50000 |  |  |  | 

Continued, values first:

IC50 [1] [nM] | solubility at 1 h [2] [µM] | remaining at 0.5 h [3] [%] | Papp [4] [×10⁻⁶ cm/s] | remaining at 0.5 h [5] [%] | SMILES
8640 |  |  |  |  | CCCC[C@@H](NC(=O)c1[nH]c2c(c1C)C(=O)CC(C)(C)C2)C(=O)Nc1ccccc1
17000 |  |  |  |  | Cc1c(C(=O)N[C@@H](CCN(C)C)c2nc3ccccc3[nH]2)[nH]c2c1C(=O)CC(C)(C)C2
72.4 |  |  |  |  | CCCC[C@H](NC(=O)c1[nH]c2c(c1C(C)C)C(=O)CC(C)(C)C2)C(=O)Nc1ccccc1
178 |  |  |  |  | CCCC[C@H](NC(=O)c1[nH]c2c(c1CC)C(=O)CC(C)(C)C2)C(=O)Nc1ccccc1
1900 |  |  |  |  | CCCC[C@H](NC(=O)c1[nH]c2c(c1C)C(=O)CC(C)(C)C2)c1nc2ccccc2[nH]1
491 | 1.8 (≈ 0.762 µg/mL) |  |  |  | CCCCC(NC(=O)c1[nH]c2c(c1C)C(=O)CC(C)(C)C2)C(=O)Nc1ccc(C)cc1 (racemic)
1540 | 4.5 (≈ 2 µg/mL) |  |  |  | CCCCC(NC(=O)c1[nH]c2c(c1C)C(=O)CC(C)(C)C2)C(=O)Nc1cccc(Cl)c1 (racemic)
20900 |  |  |  |  | CCCCC(NC(=O)c1[nH]c2c(c1C)C(=O)CCC2)C(=O)Nc1ccccc1 (racemic)
1800 |  |  |  |  | CCCCC(NC(=O)c1[nH]c2c(c1C)C(=O)CC(C)(C)C2)C(=O)Nc1ccc(C(=O)O)cc1 (racemic)
1090 | 11 (≈ 4.28 µg/mL) | 0.8 | 8.73 | 30.6 | CCCCNC(=O)C(CCCC)NC(=O)c1[nH]c2c(c1C)C(=O)CC(C)(C)C2 (racemic)
1140 | 133 (≈ 54.6 µg/mL) | 59.4 | 3.63 | 15.7 | CCCCC(NC(=O)c1[nH]c2c(c1C)C(=O)CC(C)(C)C2)C(=O)Nc1ccncc1 (racemic)
909 | 16.5 (≈ 7.05 µg/mL) | 37.5 | 23.5 | 83.8 | CCCCC(NC(=O)c1[nH]c2c(c1C)C(=O)CC(C)(C)C2)C(=O)Nc1ccc(F)cc1 (racemic)
4040 |  |  |  |  | CCCC(NC(=O)c1[nH]c2c(c1C)C(=O)CC(C)(C)C2)C(=O)Nc1ccccc1 (racemic)
> 50000 | 4.9 (≈ 2.08 µg/mL) |  |  |  | CCCCC(NC(=O)c1[nH]c2c(c1C)C(=O)CC(C)(C)C2)C(=O)N(C)c1ccccc1 (racemic)
> 50000 |  |  |  |  | CCCCC(NC(=O)c1c(C)c2c(n1C)CC(C)(C)CC2=O)C(=O)Nc1ccccc1 (racemic)
1810 | 5.9 (≈ 2.59 µg/mL) |  |  |  | CCCCC(NC(=O)c1[nH]c2c(c1C)C(=O)CC(C)(C)C2)C(=O)Nc1ccc(OC)cc1 (racemic)
5320 |  |  |  |  | CSCCC(NC(=O)c1[nH]c2c(c1C)C(=O)CC(C)(C)C2)c1nc2ccccc2[nH]1 (racemic)
1810 | 143 (≈ 58.7 µg/mL) | 44.7 | 6.95 | 32.4 | CCCCC(NC(=O)c1[nH]c2c(c1C)C(=O)CC(C)(C)C2)C(=O)Nc1cccnc1 (racemic)
1570 | 15.5 (≈ 6.74 µg/mL) | 5.5 | 7.85 | 40.8 | CCCCC(NC(=O)c1[nH]c2c(c1C)C(=O)CC(C)(C)C2)C(=O)Nc1ccccc1C#N (racemic)
1600 |  |  |  |  | Cc1c(C(=O)NC(COC2CC2)C(=O)Nc2ccccc2)[nH]c2c1C(=O)CC(C)(C)C2 (racemic)
> 50000 |  |  |  |  | CCCCC(NC(=O)c1[nH]c2c(c1C)CCC(C)(C)C2)C(=O)Nc1ccccc1 (racemic)
 |  |  | 19.4 |  | CC(C)NCC(O)COc1cccc2ccccc12 (centres undefined) [PROPRANOLOL]
